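Method: 48-hour compound exposure of cells in 96-well plates, five concentrations, linear interpolation of endpoints. The concentration for full growth arrest is given as TGI.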
Key:
Assay in all cases: DTP human tumour cell line panel, 48 h
MALME-3M melanoma = test system: MALME-3M melanoma
U251 CNS = test system: U251 CNS
RPMI-8226 leukemia = test system: RPMI-8226 leukemia
SF-295 CNS = test system: SF-295 CNS
RXF 393 renal = test system: RXF 393 renal
TK-10 renal = test system: TK-10 renal
OVCAR-8 ovarian = test system: OVCAR-8 ovarian
HCT-116 colon = test system: HCT-116 colon
LOX IMVI melanoma = test system: LOX IMVI melanoma
KM12 colon = test system: KM12 colon
OVCAR-4 ovarian = test system: OVCAR-4 ovarian
UO-31 renal = test system: UO-31 renal
DU-145 prostate = test system: DU-145 prostate
IGROV1 ovarian = test system: IGROV1 ovarian
SK-MEL-28 melanoma = test system: SK-MEL-28 melanoma
SF-268 CNS = test system: SF-268 CNS
SN12C renal = test system: SN12C renal
HT29 colon = test system: HT29 colon
HCC-2998 colon = test system: HCC-2998 colon
SNB-19 CNS = test system: SNB-19 CNS
MDA-MB-435 = test system: MDA-MB-435
SNB-75 CNS = test system: SNB-75 CNS
M14 melanoma = test system: M14 melanoma
NCI-H226 lung = test system: NCI-H226 lung
SR leukemia = test system: SR leukemia
HOP-62 NSCLC = test system: HOP-62 NSCLC
UACC-62 melanoma = test system: UACC-62 melanoma
PC-3 prostate = test system: PC-3 prostate
HL-60(TB) leukemia = test system: HL-60(TB) leukemia
SK-MEL-2 melanoma = test system: SK-MEL-2 melanoma
NCI-H522 lung = test system: NCI-H522 lung
MCF7 breast = test system: MCF7 breast
K-562 leukemia = test system: K-562 leukemia
NCI-H460 lung = test system: NCI-H460 lung
SK-MEL-5 melanoma = test system: SK-MEL-5 melanoma
EKVX NSCLC = test system: EKVX NSCLC
SK-OV-3 ovarian = test system: SK-OV-3 ovarian
A549 NSCLC = test system: A549 NSCLC
ACHN renal = test system: ACHN renal
OVCAR-3 ovarian = test system: OVCAR-3 ovarian
HS 578T breast = test system: HS 578T breast
CAKI-1 renal = test system: CAKI-1 renal
T-47D breast = test system: T-47D breast
COLO 205 colon = test system: COLO 205 colon
NCI/ADR-RES ovarian = test system: NCI/ADR-RES ovarian
A498 renal = test system: A498 renal
MDA-N = test system: MDA-N
MOLT-4 leukemia = test system: MOLT-4 leukemia
MDA-MB-231 breast = test system: MDA-MB-231 breast
NCI-H23 lung = test system: NCI-H23 lung
OVCAR-5 ovarian = test system: OVCAR-5 ovarian
CCRF-CEM leukemia = test system: CCRF-CEM leukemia
HCT-15 colon = test system: HCT-15 colon
UACC-257 melanoma = test system: UACC-257 melanoma
SW-620 colon = test system: SW-620 colon
786-0 renal = test system: 786-0 renal

`CN(C)/C=C1\CCc2ccc([N+](=O)[O-])cc2C1=O` gave a TGI (MALME-3M melanoma) of over 100 µM, a TGI (U251 CNS) of over 100 µM and a TGI (RPMI-8226 leukemia) of 62.2 µM. The TGI (SF-295 CNS) was over 100 µM, the TGI (RXF 393 renal) was over 100 µM and the TGI (TK-10 renal) was over 100 µM. For the same compound, the TGI (OVCAR-8 ovarian) was over 100 µM, the TGI (HCT-116 colon) was 36 µM and the TGI (LOX IMVI melanoma) was 42.6 µM. The TGI (KM12 colon) was over 100 µM, the TGI (OVCAR-4 ovarian) was 34.2 µM and the TGI (UO-31 renal) was over 100 µM. For the same compound, the TGI (DU-145 prostate) was over 100 µM, the TGI (IGROV1 ovarian) was over 100 µM and the TGI (SK-MEL-28 melanoma) was over 100 µM. The TGI (SF-268 CNS) was over 100 µM, the TGI (SN12C renal) was 40.4 µM and the TGI (HT29 colon) was 53.7 µM. The TGI (HCC-2998 colon) was over 100 µM, the TGI (SNB-19 CNS) was over 100 µM and the TGI (MDA-MB-435) was 34.8 µM. The TGI (SNB-75 CNS) was over 100 µM, the TGI (M14 melanoma) was over 100 µM and the TGI (NCI-H226 lung) was over 100 µM. For the same compound, the TGI (SR leukemia) was 74.2 µM, the TGI (HOP-62 NSCLC) was over 100 µM and the TGI (UACC-62 melanoma) was 76.4 µM. For the same compound, the TGI (PC-3 prostate) was over 100 µM, the TGI (HL-60(TB) leukemia) was 66.6 µM and the TGI (SK-MEL-2 melanoma) was over 100 µM. For the same compound, the TGI (NCI-H522 lung) was over 100 µM, the TGI (MCF7 breast) was 48 µM and the TGI (K-562 leukemia) was 56.8 µM. The TGI (NCI-H460 lung) was over 100 µM, the TGI (SK-MEL-5 melanoma) was over 100 µM and the TGI (EKVX NSCLC) was over 100 µM. For the same compound, the TGI (SK-OV-3 ovarian) was over 100 µM, the TGI (A549 NSCLC) was over 100 µM and the TGI (ACHN renal) was over 100 µM. For the same compound, the TGI (OVCAR-3 ovarian) was 41.2 µM, the TGI (HS 578T breast) was over 100 µM and the TGI (CAKI-1 renal) was over 100 µM. The TGI (T-47D breast) was 89.6 µM, the TGI (COLO 205 colon) was 43.5 µM and the TGI (NCI/ADR-RES ovarian) was over 100 µM. For the same compound, the TGI (A498 renal) was over 100 µM, the TGI (MDA-N) was 38.1 µM and the TGI (MOLT-4 leukemia) was 51 µM. It also gave a TGI (MDA-MB-231 breast) of 43.8 µM, a TGI (NCI-H23 lung) of over 100 µM and a TGI (OVCAR-5 ovarian) of over 100 µM. It also gave a TGI (CCRF-CEM leukemia) of 52.4 µM, a TGI (HCT-15 colon) of over 100 µM and a TGI (UACC-257 melanoma) of 38.2 µM. It also gave a TGI (SW-620 colon) of 97.1 µM and a TGI (786-0 renal) of over 100 µM.

Source: PubChem BioAssay (NCI)
